Reference: the NIST ThermoML archive (doi:10.1021/je0500633)
± gives the expanded uncertainty stated by the source.

Assays:
[1] = xn = mol fraction of the nth substance listed; details: 101.33 kPa, Liquid; for viscosity: Falling or rolling sphere viscometry
[2] = 101.33 kPa, Liquid; for viscosity: Falling or rolling sphere viscometry

CCOC(=O)C(C)CC (configuration not stated) [ethyl 2-methylbutanoate] + CCCO
[1], x1 = 1
Details	mass density [kg/m3]	viscosity [mPa·s]
293.15 K	869.73 ± 0.57	0.831 ± 0.008
303.15 K	861.48 ± 0.58	0.723 ± 0.007
313.15 K	853.41 ± 0.58	0.635 ± 0.006

CCO [ethanol] + CCOC(=O)C(C)CC
[1], x2 = 0
Details	mass density [kg/m3]	viscosity [mPa·s]
293.15 K	788.24 ± 0.62	1.16 ± 0.011
303.15 K	780.73 ± 0.63	0.968 ± 0.009
313.15 K	771.98 ± 0.64	0.81 ± 0.008

CCOC(=O)C(C)CC (configuration not stated) [ethyl 2-methylbutanoate] + CO
[1], x1 = 1
Details	mass density [kg/m3]	viscosity [mPa·s]
293.15 K	869.73 ± 0.57	0.831 ± 0.008
303.15 K	861.48 ± 0.58	0.723 ± 0.007
313.15 K	853.41 ± 0.58	0.635 ± 0.006

CCCCCC(=O)OCC [ethyl hexanoate] + CCO
[1], x1 = 1
Details	mass density [kg/m3]	viscosity [mPa·s]
293.15 K	879.01 ± 0.58	0.816 ± 0.008
303.15 K	869.31 ± 0.57	0.704 ± 0.007
313.15 K	863.28 ± 0.56	0.614 ± 0.006

CCCCCC(=O)OCC [ethyl hexanoate]
[2]
Details	mass density [kg/m3]	viscosity [mPa·s]
293.15 K	879.01 ± 4	0.816 ± 0.008
303.15 K	869.31 ± 4	0.704 ± 0.007
313.15 K	863.28 ± 4	0.614 ± 0.006

CCCO [propan-1-ol] + CCCCCC(=O)OCC
[1], x2 = 0
Details	mass density [kg/m3]	viscosity [mPa·s]
293.15 K	803.64 ± 0.61	2.188 ± 0.021
303.15 K	795.48 ± 0.62	1.713 ± 0.016
313.15 K	787.02 ± 0.63	1.378 ± 0.013

CCO [ethanol] + CCCCCC(=O)OCC
[1], x2 = 0
Details	mass density [kg/m3]	viscosity [mPa·s]
293.15 K	788.24 ± 0.62	1.16 ± 0.011
303.15 K	780.73 ± 0.63	0.968 ± 0.009
313.15 K	771.98 ± 0.64	0.81 ± 0.008

CCCCCC(=O)OCC [ethyl hexanoate] + CCCO
[1], x1 = 1
Details	mass density [kg/m3]	viscosity [mPa·s]
293.15 K	879.01 ± 0.58	0.816 ± 0.008
303.15 K	869.31 ± 0.57	0.704 ± 0.007
313.15 K	863.28 ± 0.56	0.614 ± 0.006

CO [methanol] + CCCCCC(=O)OCC
[1], x2 = 0
Details	mass density [kg/m3]	viscosity [mPa·s]
293.15 K	791.08 ± 0.63	0.577 ± 0.005
303.15 K	781.95 ± 0.64	0.512 ± 0.005
313.15 K	772.01 ± 0.65	0.447 ± 0.004

CO [methanol] + CCOC(=O)C(C)CC
[1], x2 = 0
Details	mass density [kg/m3]	viscosity [mPa·s]
293.15 K	791.08 ± 0.63	0.577 ± 0.005
303.15 K	781.95 ± 0.64	0.512 ± 0.005
313.15 K	772.01 ± 0.65	0.447 ± 0.004

CCO [ethanol]
[2]
Details	mass density [kg/m3]	viscosity [mPa·s]
293.15 K	788.24 ± 0.62	1.16 ± 0.011
303.15 K	780.73 ± 0.63	0.968 ± 0.009
313.15 K	771.98 ± 0.64	0.81 ± 0.008

CCOC(=O)C(C)CC (configuration not stated) [ethyl 2-methylbutanoate] + CCO
[1], x1 = 1
Details	mass density [kg/m3]	viscosity [mPa·s]
293.15 K	869.73 ± 0.57	0.831 ± 0.008
303.15 K	861.48 ± 0.58	0.723 ± 0.007
313.15 K	853.41 ± 0.58	0.635 ± 0.006

CO [methanol]
[2]
Details	mass density [kg/m3]	viscosity [mPa·s]
293.15 K	791.08 ± 0.63	0.577 ± 0.005
303.15 K	781.95 ± 0.64	0.512 ± 0.005
313.15 K	772.01 ± 0.65	0.447 ± 0.004

CCCCCC(=O)OCC [ethyl hexanoate] + CO
[1], x1 = 1
Details	mass density [kg/m3]	viscosity [mPa·s]
293.15 K	879.01 ± 0.58	0.816 ± 0.008
303.15 K	869.31 ± 0.57	0.704 ± 0.007
313.15 K	863.28 ± 0.56	0.614 ± 0.006

CCCO [propan-1-ol]
[2]
Details	mass density [kg/m3]	viscosity [mPa·s]
293.15 K	803.64 ± 0.61	2.188 ± 0.021
303.15 K	795.48 ± 0.62	1.713 ± 0.016
313.15 K	787.02 ± 0.63	1.378 ± 0.013

CCOC(=O)C(C)CC (configuration not stated) [ethyl 2-methylbutanoate]
[2]
Details	mass density [kg/m3]	viscosity [mPa·s]
293.15 K	869.73 ± 0.57	0.831 ± 0.008
303.15 K	861.48 ± 0.58	0.723 ± 0.007
313.15 K	853.41 ± 0.58	0.635 ± 0.006

CCCO [propan-1-ol] + CCOC(=O)C(C)CC
[1], x2 = 0
Details	mass density [kg/m3]	viscosity [mPa·s]
293.15 K	803.64 ± 0.61	2.188 ± 0.021
303.15 K	795.48 ± 0.62	1.713 ± 0.016
313.15 K	787.02 ± 0.63	1.378 ± 0.013
